Test results: patent publication US7713953B2, “2-methylene-(22E)-25-(1-methylene-hexyl)-26,27-cyclo-22-dehydro-19-nor-vitamin D analogs” (Wisconsin Alumni Research Foundation, priority 2008, dated 2010)

Tests used:
vitamin D-deficient rats [1] = test: Intestinal calcium transport (everted gut sac method); assay type: in vivo, rat
Experimental: (§1) Male, weanling Sprague-Dawley rats were placed on Diet 11 (0.47% Ca) diet+AEK oil for one week followed by Diet 11 (0.02% Ca)+AEK oil for 3 weeks. The rats were then switched to a diet containing 0.47% Ca for one week followed by two weeks on a diet containing 0.02% Ca. Dose administration began during the last week on 0.02% calcium diet. Four consecutive ip doses were given approximately 24 hours apart. Twenty-four hours after the last dose, blood was collected from the severed neck and the concentration of serum calcium determined as a measure of bone calcium mobilization. The first 10 cm of the intestine was also collected for intestinal calcium transport analysis using the everted gut sac method.

HL-60 cells = test: HL-60 cell differentiation (nitro blue tetrazolium reduction); assay type: cell-based, human; settings: for EC50: FIG. 2
Experimental: The study drugs were dissolved in ethanol and the concentrations determined using UV spectrophotometry. Serial dilutions were prepared so that a range of drug concentrations could be tested without changing the final concentration of ethanol (≦0.2%) present in the cell cultures.
Human promyelocytic leukemia (HL60) cells were grown in RPMI-1640 medium containing 10% fetal bovine serum. The cells were incubated at 37° C. in the presence of 5% CO2.
HL60 cells were plated at 1.2×10^5 cells/ml. Eighteen hours after plating, cells in duplicate were treated with drug. Four days later, the cells were harvested and a nitro blue tetrazolium reduction assay was performed (Collins et al., 1979; J. Exp. Med. 149:969-974). The percentage of differentiated cells was determined by counting a total of 200 cells and recording the number that contained intracellular black-blue formazan deposits. Verification of differentiation to monocytic cells was determined by measuring phagocytic activity (data not shown).

vitamin D-deficient rats [2] = test: Bone calcium mobilization (serum calcium); assay type: in vivo, rat; settings: for bone calcium mobilization activity (serum calcium): rats on low calcium diet (0.02%), 4 consecutive daily ip doses
Experimental: as §1

[3] = molecular target: T1, full-length recombinant rat vitamin D receptor (Rattus norvegicus, UniProt P13053); test: Vitamin D receptor competitive binding with [3H]-1,25(OH)2D3; settings: full-length recombinant rat VDR; FIG. 1; read-out: Ki, competition with [3H]-1,25(OH)2D3 for binding to vitamin D receptor
T1 construct: Full-length recombinant rat receptor was expressed in E. coli BL21 (DE3) Codon Plus RIL cells; histidine tag (C); made in house; host or cells: E. coli BL21 (DE3) Codon Plus RIL
T1 sequence (P13053 1-423): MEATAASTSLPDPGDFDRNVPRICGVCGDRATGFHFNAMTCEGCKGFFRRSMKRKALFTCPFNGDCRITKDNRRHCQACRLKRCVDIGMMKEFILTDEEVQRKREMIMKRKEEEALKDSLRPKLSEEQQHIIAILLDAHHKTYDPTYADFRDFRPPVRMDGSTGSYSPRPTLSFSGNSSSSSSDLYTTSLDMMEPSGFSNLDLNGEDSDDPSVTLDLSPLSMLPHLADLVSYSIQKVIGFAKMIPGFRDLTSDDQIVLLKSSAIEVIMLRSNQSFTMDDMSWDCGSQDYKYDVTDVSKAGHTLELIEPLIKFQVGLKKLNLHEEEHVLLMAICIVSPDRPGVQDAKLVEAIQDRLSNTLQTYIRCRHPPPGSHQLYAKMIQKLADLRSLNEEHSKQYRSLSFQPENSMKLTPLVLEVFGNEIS
Experimental: Full-length recombinant rat receptor was expressed in E. coli BL21 (DE3) Codon Plus RIL cells and purified to homogeneity using two different column chromatography systems. The first system was a nickel affinity resin that utilizes the C-terminal histidine tag on this protein. The protein that was eluted from this resin was further purified using ion exchange chromatography (S-Sepharose Fast Flow). Aliquots of the purified protein were quick frozen in liquid nitrogen and stored at −80° C. until use. For use in binding assays, the protein was diluted in TEDK50 (50 mM Tris, 1.5 mM EDTA, pH7.4, 5 mM DTT, 150 mM KCl) with 0.1% Chaps detergent. The receptor protein and ligand concentration were optimized such that no more than 20% of the added radiolabeled ligand was bound to the receptor.
Radiolabeled and unlabeled ligands were added to 100 mcl of the diluted protein at a final ethanol concentration of ≦10%, mixed and incubated overnight on ice to reach binding equilibrium. The following day, 100 mcl of hydroxylapatite slurry (50%) was added to each tube and mixed at 10-minute intervals for 30 minutes. The hydroxylapaptite was collected by centrifugation and then washed three times with Tris-EDTA buffer (50 mM Tris, 1.5 mM EDTA, pH 7.4) containing 0.5% Titron X-100. […] Total binding was determined from the tubes containing only radiolabeled ligand.

[4] = test system: 24-hydroxylase (24 Ohase) gene promoter in ROS 17/2.8 (bone) cells; test: In vitro transcription assay (24-hydroxylase promoter luciferase reporter); assay type: cell-based
Experimental: Transcription activity was measured in ROS 17/2.8 (bone) cells that were stably transfected with a 24-hydroxylase (24 Ohase) gene promoter upstream of a luciferase reporter gene (Arbour et al., 1998). Cells were given a range of doses. Sixteen hours after dosing the cells were harvested and luciferase activities were measured using a luminometer.
RLU=relative luciferase units.

[5] = times greater than the native hormone

| Structure (SMILES) | intestinal calcium transport at 780 pmol/day (vitamin D-deficient rats [1]) | EC50 (HL-60 cells) [nM] | bone calcium mobilization activity (serum calcium) (vitamin D-deficient rats [2]; FIG. 4A) | intestinal calcium transport activity at 260 pmol/day (vitamin D-deficient rats [1]; 260 pmol/day for 4 consecutive days, FIG. 5A) | dose at which any significant effect on intestinal calcium transport was seen (vitamin D-deficient rats [1]; FIG. 5A) [pmol/day] | intestinal calcium transport activity (vitamin D-deficient rats [1]; FIG. 5A, overall) | intestinal calcium transport activity compared with native hormone (vitamin D-deficient rats [1]; FIG. 5B, second group of animals) | EC50 (HL-60 cells; Homo sapiens, HL-60) [nM] | HL-60 cell differentiation activity relative to 1α,25-dihydroxyvitamin D3 (HL-60 cells; [5]) [times] | bone calcium mobilization at 7020 pmol/day compared with native hormone at 780 pmol/day (vitamin D-deficient rats [2]; 7020 pmol/day for 4 consecutive days, FIG. 4B) | dose giving the same mobilization of bone calcium as 1,25(OH)2D3 at 32 pmol/day (vitamin D-deficient rats [2]; 4 consecutive days, FIG. 4A) [pmol/day] | dose at which any substantial effect on bone calcium mobilization was seen (vitamin D-deficient rats [2]; FIG. 4A, first group of animals) [pmol/day] | dose at which any substantial effect on bone calcium mobilization was seen (vitamin D-deficient rats [2]; FIG. 4B, second group of animals) | Ki [3] [nM] | EC50 ([4]; 24-hydroxylase gene, FIG. 3, read-out: EC50, transcriptional activity in bone cells) [nM] | transcriptional activity in bone cells relative to 1α,25-dihydroxyvitamin D3 [4, 5] [times] |
| --- | --- | --- | --- | --- | --- | --- | --- | --- | --- | --- | --- | --- | --- | --- | --- | --- |
| C=C1/C(=C\C=C2/CCC[C@]3(C)[C@@H]([C@H](C)CCCC(C)(C)O)CC[C@@H]23)C[C@@H](O)C[C@@H]1O [1,25(OH)2D3, 1α,25-dihydroxyvitamin D3, reference compound] | significant increase | 3 | increased serum calcium levels at all dosages | – | – | – | – | – | – | – | – | – | – | – | – | – |
| C=C1[C@H](O)CC(=C/C=C2\CCC[C@]3(C)[C@@H]([C@H](C)/C=C/[C@@H](O)C4(C(=C)CCCCC)CC4)CC[C@@H]23)C[C@H]1O [MM-49, 2-methylene-(22E)-25-(1-methylene-hexyl)-26,27-cyclo-22-dehydro-19-nor-1α,24(R)-dihydroxyvitamin D3] | promotes intestinal calcium transport | – | relatively low, or little, activity in mobilizing calcium from bone | did not result in any activity | 780 | relatively low, or little, intestinal calcium transport activity | significantly less than 1,25(OH)3D3 | 0.8 | ~5 | did not result in the same mobilization of bone calcium | 260 | 780 | 35,100 pmol/day | 0.3 | 0.08 | 5 |
